ChEMBL document CHEMBL3875212, “Novel thrombopoietin mimetic peptides bind c-Mpl receptor: Synthesis, biological evaluation and molecular modeling” (Bioorg Med Chem, 2017)
The source made the active and inactive calls. No cut-off for these calls is given here. Residues, ends and D or L forms follow the SMILES beside them.

Molecular target: T1, Thrombopoietin receptor (Homo sapiens) (UniProt P40238)
T1 sequence (whole entry): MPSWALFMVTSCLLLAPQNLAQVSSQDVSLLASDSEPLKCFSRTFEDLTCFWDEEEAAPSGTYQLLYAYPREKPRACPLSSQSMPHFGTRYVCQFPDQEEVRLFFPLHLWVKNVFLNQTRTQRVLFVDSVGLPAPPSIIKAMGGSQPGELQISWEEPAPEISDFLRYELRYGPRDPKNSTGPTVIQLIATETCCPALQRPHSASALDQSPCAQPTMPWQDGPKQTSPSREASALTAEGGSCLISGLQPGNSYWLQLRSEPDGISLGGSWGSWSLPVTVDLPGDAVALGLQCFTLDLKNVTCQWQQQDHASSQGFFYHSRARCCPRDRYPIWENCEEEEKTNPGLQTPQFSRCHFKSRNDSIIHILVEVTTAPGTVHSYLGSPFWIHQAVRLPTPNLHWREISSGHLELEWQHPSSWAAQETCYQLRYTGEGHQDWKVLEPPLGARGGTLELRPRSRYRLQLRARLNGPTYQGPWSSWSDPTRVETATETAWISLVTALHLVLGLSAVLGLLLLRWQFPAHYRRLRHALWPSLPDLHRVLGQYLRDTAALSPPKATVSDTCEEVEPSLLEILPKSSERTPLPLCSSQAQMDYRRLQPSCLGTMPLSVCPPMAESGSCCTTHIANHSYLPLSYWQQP
Experiment: Binding affinity to c-Mpl (unknown origin) expressed in […] NIH-3T3 cells after 48 hrs by dual-glo luciferase reporter gene assay relative to control
Type: cell-based
Details: NIH3T3

Activity	Structure (SMILES)
Active	CC[C@H](C)[C@H](N)C(=O)N[C@@H](CCC(=O)O)C(=O)NCC(=O)N1CCC[C@H]1C(=O)N[C@H](C(=O)N[C@@H](CC(C)C)C(=O)N[C@@H](CCCNC(=N)N)C(=O)N[C@@H](CCC(N)=O)C(=O)N[C@@H](Cc1c[nH]c2ccccc12)C(=O)N[C@@H](CC(C)C)C(=O)N[C@@H](C)C(=O)N[C@@H](C)C(=O)N[C@@H](CCCNC(=N)N)C(=O)N[C@@H](C)C(=O)NCC(=O)NCC(=O)N1CCC[C@H]1C(=O)N[C@@H](CO)C(=O)NCC(=O)N[C@H](C(=O)N[C@@H](CCC(=O)O)C(=O)NCC(=O)N1CCC[C@H]1C(=O)N[C@H](C(=O)N[C@@H](CC(C)C)C(=O)N[C@@H](CCCNC(=N)N)C(=O)N[C@@H](CCC(N)=O)C(=O)N[C@@H](Cc1c[nH]c2ccccc12)C(=O)N[C@@H](CC(C)C)C(=O)N[C@@H](C)C(=O)N[C@@H](C)C(=O)N[C@@H](CCCNC(=N)N)C(=O)N[C@@H](C)C(=O)O)[C@@H](C)O)[C@@H](C)CC)[C@@H](C)O (H-IEGPTLRQWLAARAGGPSGIEGPTLRQWLAARA-OH)
Active	CC[C@H](C)[C@H](N)C(=O)N[C@@H](CCC(=O)O)C(=O)NCC(=O)N1CCC[C@H]1C(=O)N[C@H](C(=O)N[C@@H](CC(C)C)C(=O)N[C@@H](CCCNC(=N)N)C(=O)N[C@@H](CCC(N)=O)C(=O)N[C@@H](Cc1c[nH]c2ccccc12)C(=O)N[C@@H](CC(C)C)C(=O)N[C@@H](C)C(=O)N[C@@H](C)C(=O)N[C@@H](CCCNC(=N)N)C(=O)N[C@@H](C)C(=O)NCC(=O)NCC(=O)NCC(=O)NCC(=O)N[C@@H](CO)C(=O)NCC(=O)NCC(=O)NCC(=O)N[C@@H](CO)C(=O)NCC(=O)N[C@H](C(=O)N[C@@H](CCC(=O)O)C(=O)NCC(=O)N1CCC[C@H]1C(=O)N[C@H](C(=O)N[C@@H](CC(C)C)C(=O)N[C@@H](CCCNC(=N)N)C(=O)N[C@@H](CCC(N)=O)C(=O)N[C@@H](Cc1c[nH]c2ccccc12)C(=O)N[C@@H](CC(C)C)C(=O)N[C@@H](C)C(=O)N[C@@H](C)C(=O)N[C@@H](CCCNC(=N)N)C(=O)N[C@@H](C)C(=O)O)[C@@H](C)O)[C@@H](C)CC)[C@@H](C)O (H-IEGPTLRQWLAARAGGGGSGGGSGIEGPTLRQWLAARA-OH)
Active	CC[C@H](C)[C@H](N)C(=O)N[C@@H](CCC(=O)O)C(=O)NCC(=O)N1CCC[C@H]1C(=O)N[C@H](C(=O)N[C@@H](CC(C)C)C(=O)N[C@@H](CCCNC(=N)N)C(=O)N[C@@H](CCC(N)=O)C(=O)N[C@@H](Cc1c[nH]c2ccccc12)C(=O)N[C@@H](CC(C)C)C(=O)N[C@@H](C)C(=O)N[C@@H](C)C(=O)N[C@@H](CCCNC(=N)N)C(=O)N[C@@H](C)C(=O)NCC(=O)NCC(=O)NCC(=O)N[C@@H](CO)C(=O)NCC(=O)N[C@H](C(=O)N[C@@H](CCC(=O)O)C(=O)NCC(=O)N1CCC[C@H]1C(=O)N[C@H](C(=O)N[C@@H](CC(C)C)C(=O)N[C@@H](CCCNC(=N)N)C(=O)N[C@@H](CCC(N)=O)C(=O)N[C@@H](Cc1c[nH]c2ccccc12)C(=O)N[C@@H](CC(C)C)C(=O)N[C@@H](C)C(=O)N[C@@H](C)C(=O)N[C@@H](CCCNC(=N)N)C(=O)N[C@@H](C)C(=O)O)[C@@H](C)O)[C@@H](C)CC)[C@@H](C)O (H-IEGPTLRQWLAARAGGGSGIEGPTLRQWLAARA-OH)
